The source of these data is patent US10000486B2 (priority 2012, dated 2018).

Counter-ions that a name gives are not always drawn.

For orientation: EC50 means the concentration giving half of the maximal effect.

For test [1], the system named is Junín pseudotyped virus. In words: organism not typed. It is filed as cell-based. Particulars: read-out: Activity (EC50 in μM vs. pseudotyped virus) Junín.
For test [2], the system named is VSVg pseudotyped virus. In words: organism not typed. Format: cell-based. Particulars: read-out: Activity (EC50 in μM vs. pseudotyped virus) VSVg.
Test [3] relates to Lassa GP-pseudotyped-virus. In words: microbe, parasite or virus in culture. Format: cell-based, Lassa fever virus. Particulars: Human immunodeficiency virus 1, read-out: Activity (EC50 in μM vs. pseudotyped virus) Lassa.
In test [4] the test system is Machupo pseudotyped virus. In words: organism not typed. It is filed as cell-based. The settings on record: read-out: Activity (EC50 in μM vs. pseudotyped virus) Machupo.

Take `CC(C)Oc1ccc(-n2cnc3cc(/C=C\c4ccc(C(C)(C)F)cc4)ccc32)cc1` [Compound 39, 5-[(Z)-2-[4-(1-fluoro-1-methyl-ethyl)phenyl]vinyl]-1-(4-isopropoxy-phenyl)benzimidazole]: the EC50 was less than 1 µM in test [1], 1 to 10 µM in test [2], less than 1 µM in test [3] and less than 1 µM in test [4].

Regarding `CCOc1ccc(Cn2cnc3cc(NCc4ccc(CC)cc4)cnc32)cc1` [Compound 62, 3-[(4-ethoxyphenyl)methyl]-N-[(4-ethylphenyl)-methyl]imidazo[4,5-b]pyridin-6-amine], the EC50 in test [2], in test [3] and in test [4] was 1 to 10 µM each time.

Consider `CC(C)Oc1ccc(-n2cnc3cc(/C=C\c4ccc(C5(O)CCOCC5)cc4)ccc32)cc1` [Compound 59, 4-[4-[(Z)-2-[1-(4-isopropoxyphenyl)benzimidazol-5-yl]vinyl]phenyl]tetrahydropyran-4-ol], for which the EC50 was less than 1 µM in test [1], 1 to 10 µM in test [2], less than 1 µM in test [3] and less than 1 µM in test [4].

For `CCCCC(O)(CCCC)c1ccc(/C=C\c2ccc3c(c2)ncn3-c2ccc(OC(C)C)cc2)cc1` [Compound 41, 5-[4-[(Z)-2-[1-(4-isopropoxyphenyl)benzimidazol-5-yl]vinyl]phenyl]nonan-5-ol], the results for the EC50 in test [2], in test [3] and in test [4] were 10 to 50 µM, less than 1 µM and less than 1 µM, respectively.

Turning to `COc1ccc(-n2cnc3cc(OCc4ccc(C(C)C)cc4)ccc32)cc1` [Compound 30, 5-[(4-isopropylphenyl)methoxy]-1-(4-methoxyphenyl)benzimidazole], the EC50 was less than 1 µM in test [1], 10 to 50 µM in test [2], less than 1 µM in test [3] and less than 1 µM in test [4].

As for `CCOc1ccc(-n2cnc3cc(CNc4ccc(CC)cc4)ccc32)cc1` [Compound 34, N-[[1-(4-ethoxyphenyl)benzimidazol-5-yl]methyl]-4-ethyl-aniline], the EC50 was less than 1 µM in test [1], 10 to 50 µM in test [2], less than 1 µM in test [3] and less than 1 µM in test [4].

With `CC(C)Oc1ccc(-n2cnc3cc(/C=C\c4ccc(C5(O)CCCCC5)cc4)ccc32)cc1` [Compound 57, 1-[4-[(Z)-2-[1-(4-isopropoxyphenyl)benzimidazol-5-yl]vinyl]phenyl]cyclohexanol], the EC50 is 1 to 10 µM in test [2], less than 1 µM in test [3] and less than 1 µM in test [4].

Take `CC(C)Oc1ccc(-n2cnc3cc(/C=C\c4ccc(C5(N)CC5)cc4)ccc32)cc1` [Compound 54, 1-[4-[(Z)-2-[1-(4-isopropoxyphenyl)benzimidazol-5-yl]vinyl]phenyl]cyclopropanamine]: the EC50 in test [1] is less than 1 µM; in test [2], 10 to 50 µM; in test [3], less than 1 µM; in test [4] it was less than 1 µM.

In the case of `CC(C)Oc1ccc(-n2cnc3cc(/C=C\c4ccc(C5(O)CCC5)cc4)ccc32)cc1` [Compound 52, 1-[4-[(Z)-2-[1-(4-isopropoxyphenyl)benzimidazol-5-yl]vinyl]phenyl]cyclobutanol], the EC50 in test [1] is less than 1 µM; in test [2], 1 to 10 µM; in test [3], less than 1 µM; in test [4] it was less than 1 µM.

Turning to `CC(C)Oc1ccc(-n2cnc3cc(/C=C/c4ccc(C(C)(C)C)cc4)ccc32)cc1` [Compound 6, 5-[(E)-2-(4-tert-butylphenyl)vinyl]-1-(4-isopropoxyphenyl)-benzimidazole], the EC50 in test [2] was 10 to 50 µM; in test [3], less than 1 µM.

As for `CC(C)Oc1ccc(-n2cnc3cc(/C=C\c4ccc(CCC=O)cc4)ccc32)cc1` [Compound 44, 3-[4-[(Z)-2-[1-(4-isopropoxyphenyl)benzimidazol-5-yl]vinyl]phenyl]propanal], the figures for the EC50 in test [2] and in test [3] were 10 to 50 µM and less than 1 µM, respectively.

As to `CC(C)Oc1ccc(-n2cnc3cc(/C=C\c4ccc(C(C)(O)C(=O)O)cc4)ccc32)cc1` (stereo not shown) [Compound 55, 2-hydroxy-2-[4-[(Z)-2-[1-(4-isopropoxyphenyl)benzimidazol-5-yl]vinyl]phenyl]propanoic acid], the EC50 in test [2] was greater than 50 µM; in test [3], less than 1 µM.

Regarding `CCOc1ccc(-n2cnc3cc(/C=C/c4ccc(CC)cc4)ccc32)nc1` [Compound 18, 1-(5-ethoxy-2-pyridyl)-5-[(E)-2-(4-ethylphenyl)vinyl]benzimidazole hydrochloride], the EC50 in test [1] was 1 to 10 µM; in test [2], 10 to 50 µM; in test [3], less than 1 µM.

As to `CCOc1ccc(-n2cnc3cc(/C=C/c4ccc(C(C)(C)C)cc4)ccc32)cc1` [Compound 4, 5-[(E)-2-(4-tert-butylphenyl)vinyl]-1-(4-ethoxyphenyl)-benzimidazole], the EC50 in test [2] was 10 to 50 µM; in test [3], less than 1 µM.

As for `CC(C)Oc1ccc(-n2cnc3cc(/C=C\c4ccc(C#N)cc4)ccc32)cc1` [Compound 49, 4-[(Z)-2-[1-(4-isopropoxyphenyl)benzimidazol-5-yl]vinyl]benzonitrile], the EC50 in test [2] was 10 to 50 µM; in test [3], less than 1 µM.

As for `CC(C)Oc1ccc(-n2cnc3cc(/C=C\c4ccc(C5(O)CCCC5)cc4)ccc32)cc1` [Compound 56, 1-[4-[(Z)-2-[1-(4-isopropoxyphenyl)benzimidazol-5-yl]vinyl]phenyl]cyclopentanol], the half-maximal effective concentration (EC50) in test [2] is 1 to 10 µM; in test [3] it was less than 1 µM; in test [4], less than 1 µM.

Take `CCOc1ccc(-n2ccc3cc(NCc4ccc(CC)cc4)cnc32)cc1` [Compound 66, 1-(4-ethoxyphenyl)-N-[(4-ethylphenyl)-methyl]pyrrolo[2,3-b]pyridin-5-amine]: the concentration for a half-maximal effect (EC50) in test [2] was greater than 50 µM; in test [3], less than 1 µM; in test [4] it was 1 to 10 µM.

In the case of `CCc1ccc(/C=C/c2ccc3c(c2)ncn3-c2ccc(OC(C)(C)C)cc2)cc1` [Compound 14, 1-(4-tert-butoxyphenyl)-5-[(E)-2-(4-ethylphenyl)-vinyl]benzimidazole], the concentration giving a half-maximal response (EC50) is 10 to 50 µM in test [2] and 1 to 10 µM in test [3].

Regarding `CCOc1ccc(-n2cnc3cc(/C=C/c4ccc(C(C)(C)C)cc4)ccc32)nc1` [Compound 20, 5-[(E)-2-(4-tert-butylphenyl)vinyl]-1-(5-ethoxy-2-pyridyl)benzimidazole hydrochloride], the concentration giving a half-maximal response (EC50) in test [2] is 1 to 10 µM; in test [3], less than 1 µM.

Turning to `CC(C)Oc1ccc(-n2cnc3cc(/C=C\c4ccc(C(O)(C(F)(F)F)C(F)(F)F)cc4)ccc32)cc1` [Compound 47, 1,1,1,3,3,3-hexafluoro-2-[4-[(Z)-2-[1-(4-isopropoxyphenyl)benzimidazol-5-yl]vinyl]phenyl]propan-2-ol], the EC50 was 1 to 10 µM in test [2], less than 1 µM in test [3] and less than 1 µM in test [4].

Consider `CCOc1ccc(-n2ccc3cc(NCc4ccc(CC)cc4)ccc32)cc1` [Compound 63, 1-(4-ethoxyphenyl)-N-[(4-ethylphenyl)-methyl]indol-5-amine], for which the values for the EC50 in test [2], in test [3] and in test [4] were 10 to 50 µM, less than 1 µM and less than 1 µM, respectively.

For the compound `COc1ccc(-n2cnc3cc(/C=C/c4ccc(C(C)C)cc4)ccc32)cc1` [Compound 3, 5-[(E)-2-(4-isopropylphenyl)vinyl]-1-(4-methoxyphenyl)benzimidazole], the EC50 in test [2] is 10 to 50 µM; in test [3] it was 1 to 10 µM.

`CC(C)Oc1ccc(-n2cnc3cc(/C=C\c4ccc(C(C)(C)C(F)(F)F)cc4)ccc32)cc1` [Compound 43, 1-(4-isopropoxyphenyl)-5-[(Z)-2-[4-(2,2,2-trifluoro-1,1-dimethyl-ethyl)phenyl]vinyl]benzimidazole]: the EC50 in test [2] was 1 to 10 µM; in test [3], less than 1 µM; in test [4], less than 1 µM.

On to `CC(C)Oc1ccc(-n2cnc3cc(/C=C\c4ccc(C(C)(O)C(F)(F)F)cc4)ccc32)cc1` (stereo not shown) [Compound 46, 1,1,1-trifluoro-2-[4-[(Z)-2-[1-(4-isopropoxyphenyl)benzimidazol-5-yl]vinyl]phenyl]propan-2-ol], for which the EC50 in test [2] was 1 to 10 µM; in test [3] it was less than 1 µM; in test [4], less than 1 µM.

Consider `CCOc1ccc(-n2cnc3cc(/C=C/c4ccc(CC)cc4)cnc32)cc1` [Compound 23, 3-(4-ethoxyphenyl)-6-[(E)-2-(4-ethylphenyl)vinyl]imidazo[4,5-b]pyridine], for which the EC50 in test [2] was greater than 50 µM; in test [3] it was 1 to 10 µM.

Regarding `CCOc1ccc(-n2cnc3ccc(CCc4ccc(CC)cc4)cc32)cc1` [Compound 35, 1-(4-ethoxyphenyl)-6-[2-(4-ethylphenyl)-ethyl]benzimidazole], the EC50 in test [2] was 10 to 50 µM; in test [3], less than 1 µM; in test [4] it was less than 1 µM.

Turning to `CCOc1ccc(-n2cnc3cc(/C=C/c4ccc(CC)cc4)ccc32)cc1` [Compound 1, 1-(4-ethoxyphenyl)-5-[(E)-2-(4-ethylphenyl)vinyl]benzimidazole], the figures for the EC50 in test [2], in test [3] and in test [4] were 10 to 50 µM, less than 1 µM and less than 1 µM, respectively.

For `CC(C)(C)Oc1ccc(-n2cnc3cc(/C=C/c4ccc(C(C)(C)C)cc4)ccc32)cc1` [Compound 16, 1-(4-tert-butoxyphenyl)-5-[(E)-2-(4-tert-butylphenyl)vinyl]benzimidazole], the EC50 in test [2] lay in the range of 10 to 50 µM; in test [3], 1 to 10 µM.

On to `CC(C)Oc1ccc(-n2cnc3cc(/C=C\c4ccc(C(C)(C)O)cc4)ccc32)nc1` [Compound 42, 2-[4-[(Z)-2-[1-(5-isopropoxy-2-pyridyl)benzimidazol-5-yl]vinyl]phenyl]propan-2-ol], for which the half-maximal effective concentration (EC50) in test [2] was 1 to 10 µM; in test [3], less than 1 µM; in test [4] it was less than 1 µM.

Regarding `COc1ccc(-n2cnc3cc(/C=C/c4ccc(C(C)C)cc4)cnc32)cc1` [Compound 25, 6-[(E)-2-(4-isopropylphenyl)vinyl]-3-(4-methoxyphenyl)imidazo[4,5-b]pyridine], the EC50 in test [2] is greater than 50 µM; in test [3], 1 to 10 µM.
